Data reported in patent publication US10435412B2, “Selective modulators of the activity of the GPR55 receptor: chromenopyrazole derivatives” (Consejo Superior de Investigaciones Cientificas (CSIC), priority 2015, dated 2019).

Key:
GPR55 receptor [1] = biological target: T1, GPR55 receptor (Homo sapiens, UniProt Q9Y2T6); assay: GPR55 agonist activity, real-time cell impedance (xCELLigence) in hGPR55-HEK293 cells; type: cell-based; conditions: mean (95% confidence interval); for Emax: read-out: Emax (%), agonist action on GPR55
T1 construct: expressed in transfected cells
Experimental: (§1) In the present invention, the activity of the compounds of the invention on the GPR55 receptor was assessed by performing in vitro assays with real-time cell impedance measurements (xCELLigence experiments). These assays were performed on a HEK293 human embryonic kidney cell line overexpressing the recombinant GPR55 receptor in stable form (hGPR55-HEK293). The cells were seeded one day prior to carrying out the stimulation with the exemplary compounds of the present invention.
Activation of the GPR55 receptor by an agonist compound causes a cellular impedance detected by the system and compared to lysophosphatidylinositol (LPI), a reference GPR55 ligand. The effect of LPI measured at a concentration of 1 μM was set at 100%. […] Therefore, dose-response curves were determined at this time. Cell impedance values were normalized for each well, just prior to addition of the inventive compound of the invention to be evaluated.

GPR55 receptor [2] = biological target: T1, GPR55 receptor; assay: GPR55 antagonist activity: inhibition of LPI-mediated GPR55 stimulation (xCELLigence) in hGPR55-HEK293 cells; type: cell-based; conditions: LPI alone or with example compound at 1 μM, mean (95% confidence interval)
Experimental: as §1
The ability of the exemplary compounds of the patent to inhibit LPI-mediated GPR55 receptor stimulation has been evaluated.
Values represent the mean with a 95% confidence interval calculated with 4 independent experiments performed in duplicate. Significant differences with respect to LPI values are considered due to lack of overlap of confidence intervals.

[3] = maximum effect relative to LPI 1 μM = 100%

T1 sequence (Q9Y2T6 whole entry): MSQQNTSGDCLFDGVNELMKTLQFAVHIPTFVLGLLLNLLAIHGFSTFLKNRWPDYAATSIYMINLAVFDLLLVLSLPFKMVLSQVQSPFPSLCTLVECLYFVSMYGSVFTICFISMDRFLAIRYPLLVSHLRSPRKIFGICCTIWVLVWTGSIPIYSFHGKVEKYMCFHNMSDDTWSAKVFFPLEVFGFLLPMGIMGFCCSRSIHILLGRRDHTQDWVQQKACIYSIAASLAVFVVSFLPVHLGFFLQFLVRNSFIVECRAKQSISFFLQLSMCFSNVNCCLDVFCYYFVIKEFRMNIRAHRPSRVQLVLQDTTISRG

Row | Compound | Emax (GPR55 receptor [1]; [3]) [%] | melting point [°C] | also measured
1 | COc1ccc2c(c1)OC(C)(C)c1cn(CCN3CCN(C(=O)c4ccco4)CC3)nc1-2 [Example 2, 2-(2-(4-(2-furoyl)piperazinyl)ethyl)-2,4-dihydro-7-methoxy-4,4-dimethylchromeno[4,3-c]pyrazole] | 43 |  | 
2 | COc1ccc2c(c1)OC(C)(C)c1cn(CCN3CCN(C(=O)c4ccccc4)CC3)nc1-2 [Example 4, 2-(2-(4-benzoyl-piperazinyl)ethyl)-2,4-dihydro-7-methoxy-4,4-dimethylchromeno[4,3-c]pyrazole] | 51 |  | 
3 | COc1ccc2c(c1)OC(C)(C)c1cn(CCN3CCN(C(=O)c4cccs4)CC3)nc1-2 [Example 6, 2-(2-(4-(2-thienoyl)piperazinyl)ethyl)-2,4-dihydro-7-methoxy-4,4-dimethylchromeno[4,3-c]pyrazole] | 45 | 163 to 165 | 
4 | COc1ccc2c(c1)OC(C)(C)c1cn(CCN3CCN(C(=O)COc4ccccc4)CC3)nc1-2 [Example 7, 2-(2-(4-phenoxyacetylpiperazinyl)ethyl)-2,4-dihydro-7-methoxy-4,4-dimethylchromeno[4,3-c]pyrazole] | 52 | 177 to 179 | 
5 | COc1ccc2c(c1)OC(C)(C)c1cn(CCN3CCN(C(=O)C4CCCO4)CC3)nc1-2 (stereo not shown) [Example 8, 2-(2-(4-(2-tetrahydrofuroyl)piperazinyl)ethyl)-2,4-dihydro-7-methoxy-4,4-dimethylchromeno[4,3-c]pyrazole] | 51 | 158 to 160 | 
6 | COc1ccc2c(c1)OC(C)(C)c1cn(CCN3CCN(C(=O)C4CCCCC4)CC3)nc1-2 [Example 9, 2-(2-(4-cyclohexylcarbonyl-piperazinyl)ethyl)-2,4-dihydro-7-methoxy-4,4-dimethylchromeno[4,3-c]pyrazole] | 47 | 151 to 152 | 
7 | COc1ccc2c(c1)OC(C)(C)c1cn(CCN3CCN(C(=O)C(C)(C)C)CC3)nc1-2 [Example 10, 2-(2-(4-pivaloyl-piperazinyl)ethyl)-2,4-dihydro-7-methoxy-4,4-dimethylchromeno[4,3-c]pyrazole] | 49 |  | 
8 | COc1ccc2c(c1)OC(C)(C)c1cn(CNC(=O)CN3CCN(c4ccccc4OC)CC3)nc1-2 [Example 14, 2-(2-(4-(2-methoxyphenyl)piperazinyl)acetamidomethyl)-2,4-dihydro-7-methoxy-4,4-dimethylchromeno[4,3-c]pyrazole] | 51 |  | 
9 | lysophosphatidylinositol [LPI, reference compound] |  |  | EC50 (GPR55 receptor [2]; hGPR55-HEK293 cells, read-out: EC50 (nM) of LPI in the presence of example compound): 1.6 nM; Emax (%) of LPI in the presence of example compound (GPR55 receptor [2]; relative to LPI activity): 99 (90-108) %; EC50 (GPR55 receptor [1]; hGPR55-HEK293 cells, xCELLigence, 5 minutes after addition, 4 experiments, read-out: EC50 (nM), agonist action on GPR55): 2.82 nM; Emax (%), agonist action on GPR55 (GPR55 receptor [1]; [3]): 100 (81-118) %
